The values below come from paper PMC8495455, “Discovery of a transdermally deliverable pentapeptide for activating AdipoR1 to promote hair growth” (EMBO Molecular Medicine, 2021).

The test system of one assay is IGF-1 mRNA. In words: qRT-PCR growth factor gene expression in DP cells, IGF-1. As to conditions: for mRNA_IGF1: DP cells. It is filed as cell-based, human. An excerpt: Next, we investigated the downstream effects of P5 on hair growth factor genes and proteins in DP cells. […] We tested whether P5 can also increase the mRNA levels and proteins of hair growth factors in DP cells: IGF‐1, VEGF, HGF, platelet‐derived growth factor alpha (PDGFA), and fibroblast growth factor (FGF) 7, which are known to induce or maintain the anagen phase of the hair cycle (Jindo et al, [1994]; Philpott et al, [1994]; Yano et al, [2001]; Jang, [2005]; Tomita et al, [2006]; Iino et al, [2007]).
Total RNA was isolated from P5‐treated DP cells using RNAiso Plus (#9109; TaKaRa). We used the total RNA (1 µg) for cDNA synthesis using a RevertAid First Strand cDNA Synthesis Kit (Thermo Fisher) according to the manufacturer's instructions. The mRNA expression levels were quantified on a 7500 Real‐time PCR System (Thermo Fisher) using TB Green Premix Ex Taq (TaKaRa Bio): human IGF‐1, VEGF, HGF, PDGFA, FGF7, and glyceraldehyde 3‐phosphate dehydrogenase (GAPDH) (Appendix Table S2). The relative expression levels of each gene were determined by the 2^‐ΔΔCT method.
A general note: Quantitative PCR measures a nucleic acid by following its amplification.

The test system of assay [1] is p-AMPK in ORS and DP cells of human HFs. In words: IF staining p-AMPK of ex vivo cultured HF bulb. It is filed as cell-based. The conditions noted are these: vs vehicle. From the text:
We next investigated whether P5 can reproduce the effects of APN on hair growth promotion ex vivo (Won et al, [2012]) using ex vivo human HF organ culture model. […] The Ki‐67‐positive cell portion of the matrix area in the P5‐treated HFs was higher than that in the vehicle‐treated group (Fig 3E).
Paraffin‐embedded mouse cutaneous back tissue was sectioned (4 μm thickness) and stained with hematoxylin and eosin. For IF staining, human ORS cells cultured in FiTC‐P5, sectioned paraffin‐embedded human HFs (7 μm thickness), and sectioned paraffin‐embedded mouse cutaneous dorsal tissue or human skin tissue (5 μm thickness) were incubated at 4°C overnight with the following primary antibodies diluted in the diluent reagent (Invitrogen): phospho‐AMPK (#2535, 1:100; Cell Signaling), Ki‐67 (#M7240, 1:200; Dako), versican (#ab177480, 1:200; Abcam), or AdipoR1 antibody (#ab126611, 1:200; Abcam). After three washes with PBS, the slides were incubated with the secondary Alexa Fluor 488‐labeled anti‐mouse or rabbit IgG antibody (#ab150077, #ab150113, 1:200; Invitrogen), or Alexa Fluor 594‐labeled anti‐rabbit IgG antibody (#a11012, 1:200; Invitrogen) at 25°C for 1 h. Nuclei were counterstained with 4′,6‐diamidino‐2‐phenylindole (DAPI; #D1306, 1:1,000; Invitrogen). […] IF intensity was observed and recorded with a Nikon Eclipse Ni‐E fluorescence microscope (Nikon).

The test system of the next assay is Adipor1−/− mice. The experiment in a line: Mouse hair cycle modulation, histology and anagen induction score, Adipor1−/− mice. The class given is in vivo. An excerpt:
To test whether the effect of P5 is mediated through AdipoR1 in vivo, we used Adipor1 ^−/− mice (Yamauchi et al, [2007]; Okada‐Iwabu et al, [2013]). […] Consistently, the anagen induction effects of P5 was abolished in the Adipor1 ^−/− mice (Fig 4I and J), in contrast to in WT mouse (Appendix Fig S2). […] Taken together, topical P5 treatment can accelerate hair growth through AdipoR1 in vivo.
Paraffin‐embedded mouse cutaneous back tissue was sectioned (4 μm thickness) and stained with hematoxylin and eosin. […] IF intensity was observed and recorded with a Nikon Eclipse Ni‐E fluorescence microscope (Nikon).
For the hair cycle modulation experiment, Adipoq ^−/− (stock #008195; JAX) (Ma et al, [2002]), Adipor1 ^−/− (Yamauchi et al, [2007]; Okada‐Iwabu et al, [2013]), or C57BL/6 (KOATECH) female mice was used (Müller‐Röver et al, [2001]). […] The mouse hair growth score (a value from 0 to 100 based on the skin pigmentation and hair shaft density) was monitored and documented at designated days with the experimenters being blind to the conditions, following a previous study (Chai et al, [2019]). […] On day 35, we obtained dorsal cutaneous tissue for histological analysis: anagen induction scores (calculated using an assigned arbitrary score; telogen = 1, anagen I–VI = 2–7) (Müller‐Röver et al, [2001]). […]

With “GLYYF [P5, GST-fused (GST-P5) in pulldown assays]”, the mRNA_IGF1 in the assay on IGF-1 mRNA (P5 5μM, relative to Control = 1, replicate 1) is 1.775; in the assay on IGF-1 mRNA (P5 5μM, relative to Control = 1, replicate 2), 0.9141; in the assay on IGF-1 mRNA (P5 5μM, relative to Control = 1, replicate 3), 1.9981; in the assay on IGF-1 mRNA (P5 5μM, relative to Control = 1, replicate 4), 0.5956; in the assay on IGF-1 mRNA (P5 5μM, relative to Control = 1, replicate 5), 0.9696; with IGF-1 mRNA (P5 25μM, relative to Control = 1, replicate 1), 4.048. Besides, the mRNA_IGF1 in the assay on IGF-1 mRNA (P5 25μM, relative to Control = 1, replicate 2) amounted to 1.581; in the assay on IGF-1 mRNA (P5 25μM, relative to Control = 1, replicate 3), 3.012; in the assay on IGF-1 mRNA (P5 25μM, relative to Control = 1, replicate 4), 4.414; with IGF-1 mRNA (P5 25μM, relative to Control = 1, replicate 5), 1.2502. Further, the “IGF-1 mRNA expression” value with IGF-1 mRNA (P5-treated DP cells, n = 5) is listed as “significantly increased”. In addition, the “p-AMPK in HF bulb (IF staining)” value in assay [1] was “prominently detected in ORS and DP cells”. For the same substance, the “Histology / anagen induction score vs vehicle” value with Adipor1−/− mice is on record as “anagen HF was not found”.
